Data taken from patent US8530636B2, “Method for regulating protein function in cells in vivo using synthetic small molecules” (priority 2008, dated 2013).
Entries after “also recorded” stand apart in the source; their conditions may differ.

Key:
FKBP L106P-YFP fusion = molecular target: T1, FKBP L106P-YFP fusion (Homo sapiens, UniProt P62942, F37V); assay: Shield1 dose-response of FKBP-YFP fluorescence, flow cytometry; format: cell-based
T1 construct: expressed in transfected cells
Procedure: (§1) Experiments were performed in triplicate.

[1] = molecular target: T2, FKBP variant V24A-YFP fusion protein (Homo sapiens, UniProt P62942, F37V/V25A); assay: as above; format: cell-based; conditions: NIH3T3 cells stably expressing V24A FKBP-YFP
T2 construct: expressed in transfected cells; host or cells: NIH3T3 (retroviral transduction)
Procedure: as §1

L106P-tsLuc = molecular target: T3, L106P-tsLuc (Homo sapiens, UniProt P62942, F37V); assay: In vivo bioluminescence imaging of HCT116 L106P-luciferase xenografts; parameters: species or system SCID mice
T3 construct: expressed in transfected cells

L-L106P-IL-2 [2] = molecular target: T4, L-L106P-IL-2 (Homo sapiens, UniProt P60568); assay: IL-2 secreted by HCT116 L-L106P-IL-2 cells, ELISA of culture media; format: cell-based; conditions: dose-dependent on Shield1 in the media
T4 construct: IL-2 signal peptide (L), human IL-2 (N); expressed in transfected cells; in culture (A11) or as xenograft in CD1 nu-/nu- mice (A13)
Procedure: (§2) FIGS. 22A-22D show graphs relating to the conditional stabilization of a secreted immunomodulatory protein leads. […] Data are represented as the average IL-2 concentration ±SEM (n=3). […] Tumor volume was determined by caliper measurement and monitored over time. Data are represented as the average tumor volume ±SEM (n=5).
Interleukin-2 (IL-2) is a cytokine that is instrumental in immune response, inducing the differentiation and proliferation of a variety of lymphocyte populations (Gaffen, S. L. and Liu, K. D. (2004) Cytokine 28:109-23). Recombinant IL-2 is approved for clinical treatment of renal cancers and is used in a variety of other cancer therapies. Polynucleotides encoding the L106P stability-affecting protein were inserted between polynucleotides of the IL-2 gene that encode the signal peptide and the remainder of the IL-2 protein to produce the chimeric gene, L-L106P-IL-2, which was stably introduced into HCT116 cells. […]
Thermostable luciferase or the human IL-2 gene were cloned into pBMN L106P iBlasticidin and used to generate amphotropic retrovirus (Banaszynski, L. A. et al. (2006) Cell. 126:995-1004). […] Cells grown in 96-well plates (2×10^4 cells/well) were treated with Shield1 as indicated and either bioluminescence measured using an IVIS 50 (Xenogen Product from Caliper Life Sciences) following luciferin addition (300 μg/mL), or media collected for ELISA.

[3] = test system: HCT116 L-L106P-IL-2 tumors; format: in vivo
Procedure: FIGS. 22A-22D show graphs relating to the conditional stabilization of a secreted immunomodulatory protein leads. […]. Data are represented as the average IL-2 concentration ±SEM (n=3). […]. Tumor volume was determined by caliper measurement and monitored over time. Data are represented as the average tumor volume ±SEM (n=5).
[…]. Tumors in the untreated control animals continued to increase in size over the course of the experiment. […].
(§3) SCID or CD1 nu-/nu-mice (Charles River Co.) received subcutaneous dorsal injections of ˜1×10^7 cells, and tumors were allowed to establish as indicated. Animals were given an intraperitoneal injection of luciferin (225 mg/kg), anesthetized (2% isoflurane), and placed on the warmed stage (37° C.) of an IVIS 100 or IVIS 200 (Xenogen Product from Caliper Life Sciences) for imaging. Light produced was measured as photons/sec for designated regions of interest as described. Tumor volumes were also determined by caliper measurement, and mice were sacrificed when tumors reached 1.44 cm^3 for survival assays. In some experiments, serum samples were collected by retino-orbital bleedings and tumors collected post-mortem and homogenized for ELISA assay of cytokines. All experiments were run with institutional IACUC approval.

L-L106P-IL-2 [4] = molecular target: T4, L-L106P-IL-2; assay: IL-2 in tumor and serum of xenografted mice, ELISA; format: in vivo, CD1 nu-/nu-mice; conditions: 48 hr after start
Procedure: as §2
Analysis of IL-2 levels within the tumors of treated and untreated mice confirmed dose-dependent production of IL-2 at the tumor site in mice treated at 5 or 10 mg/kg Shield1 (FIG. 22C; p=0.032). […] A dose of 5 mg/kg Shield1 was sufficient to produce the same robust anti-tumor response as 10 mg/kg Shield1, while avoiding the increase in IL-2 serum levels associated with the higher ligand dose.
as §3

vvDD = format: cell-based, vaccinia virus
[5] = mouse, in vivo
FKBP F36V variant = FKBP F36V variant (Homo sapiens, UniProt P62942, F37V); conditions: Clackson et al. 1998; cited from earlier work
HCT116 tumors = assay: vvDD L-L106P-IL-2 in mice bearing HCT116 tumors
FKBP-YFP fusion proteins [6] = molecular target: FKBP-YFP fusion proteins (Homo sapiens, UniProt P62942, F37V); assay: Kinetics of FKBP-YFP fluorescence upon addition of Shield1; conditions: L106P-YFP, various concentrations of Shield1
FKBP-YFP fusion proteins [7] = assay: as above
[8] = cited from earlier work

T4 sequence (P60568 with tags, fused parts or gaps): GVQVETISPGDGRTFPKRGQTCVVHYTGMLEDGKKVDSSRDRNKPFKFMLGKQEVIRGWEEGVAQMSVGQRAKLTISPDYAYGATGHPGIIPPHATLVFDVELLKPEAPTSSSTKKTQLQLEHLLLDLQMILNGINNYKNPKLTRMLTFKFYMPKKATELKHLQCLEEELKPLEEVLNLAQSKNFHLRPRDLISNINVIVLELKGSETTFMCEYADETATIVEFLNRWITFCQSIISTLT
T3 sequence (P62942 with tags, fused parts or gaps F37V): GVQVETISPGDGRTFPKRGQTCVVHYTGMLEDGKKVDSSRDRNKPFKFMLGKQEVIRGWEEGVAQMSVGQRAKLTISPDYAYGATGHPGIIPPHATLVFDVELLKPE
T1 sequence (P62942 with tags, fused parts or gaps F37V): as above
Chain of FKBP F36V variant (P62942 2-108 F37V limits assumed): as the sequence (P62942 with tags, fused parts or gaps F37V) above, with P106L counted along it
Chain of FKBP-YFP fusion proteins (Homo sapiens, UniProt P62942, F37V) (P62942 with tags, fused parts or gaps F37V): as the sequence (P62942 with tags, fused parts or gaps F37V) above
T2 sequence (P62942 2-108 V25A/F37V): as the sequence (P62942 with tags, fused parts or gaps F37V) above, with V24A, P106L counted along it

1-[2-(3,4,5-trimethoxy-phenyl)-butyryl]-piperazine-2-carboxylic acid 3-(3,4-dimethoxy-phenyl)-1-[3-(2-morpholin-4-yl-ethoxy)-phenyl]-propyl ester [Shield1]
Stabilization of FKBP L106P-YFP fusion protein (FKBP L106P-YFP fusion; 1 μM Shield1): fully stabilized | EC50 (FKBP L106P-YFP fusion; NIH3T3 cells stably expressing L106P-YFP, read-out: EC50 of Shield1 to stabilize the YFP fusion protein): ~100 nM | EC50 [1]: ~5 nM | Time for bioluminescent signals to return to background (L106P-tsLuc; 10 mg/kg ip): ≤ 48 h | Increase in bioluminescent signal in the presence compared to the absence of Shield1 (L106P-tsLuc; 10 mg/kg ip, FIG. 21B): ~10 fold | Time of maximum expression levels following treatment (L106P-tsLuc; 10 mg/kg ip, L106P-tsLuc, FIG. 21A): 12 h | Bioluminescence under periodic treatment (L106P-tsLuc; 10 mg/kg once every 48 hours): maintain increased bioluminescence levels over the course of several weeks | Bioluminescence with increasing doses (L106P-tsLuc; 3, 6, or 10 mg/kg): increasing bioluminescence levels | Time of peak luminescence following a single injection of ligand (L106P-tsLuc; FIG. 7A, luciferase fused to FKBP F36V/L106P): about 10 hours | Dynamic range of secreted IL-2 (L-L106P-IL-2 [2]): approximately 25 fold | Tumor establishment ([3]; cells pretreated with Shield1, then 10 mg/kg every 48 hours): Tumors failed to establish | Tumor burden relative to untreated animals ([3]; day 16, all Shield1-treated groups): significantly reduced tumor burden | Tumor size ([3]; i.p. 5 or 10 mg/kg every 48 hours from five days after implantation): tumor regression | IL-2 per gram tumor tissue (L-L106P-IL-2 [4]; 5 mg/kg): more IL-2 than tumors from untreated mice | Serum IL-2 levels (L-L106P-IL-2 [4]; 5 mg/kg): did not produce any increase in serum IL-2 levels | IL-2 per gram tumor tissue (L-L106P-IL-2 [4]; 10 mg/kg): significantly higher levels of IL-2 than tumors from mice treated at 5 mg/kg | Serum IL-2 levels (L-L106P-IL-2 [4]; 10 mg/kg): significantly higher levels of serum IL-2; also recorded: significantly elevated levels | Replication of the virus (vvDD): did not affect the replication of the virus | Feeding behavior, body weight, overall activity [5]: did not appear to affect feeding behavior, body weight, or overall activity | Binding tighter to the F36V variant compared to wild-type FKBP (FKBP F36V variant): about 1,000 fold | Treg infiltration into tumor (HCT116 tumors; delayed clearance of virus): increase in Treg infiltration | Survival of treated animals (HCT116 tumors; no Shield1 during the first 72 hours after vvDD L-L106P-IL-2): greater percent survival of the treated animals | Time until YFP expression is observed (FKBP-YFP fusion proteins [6]): ≤ 15 min | Time of maximum fluorescence after addition of Shield1 (FKBP-YFP fusion proteins [7]; NIH3T3 cells, FKBP-YFP variants): 24 h | Time fluorescence is stably maintained without further addition of Shield1 (FKBP-YFP fusion proteins [7]; after the maximum at 24 hours): ≥ 48 h

C20-methallylrapamycin [MaRap]
Pharmacokinetic properties in vivo [8]: poor pharmacokinetic properties in vivo
